Measurements: patent US7285621B2, “Multiple branch peptide construction” (Ambrilia Biopharma, priority 1999, dated 2007)

Legend:
Type in all cases: cell-based
HIV-1NL4-3 [1] = test: HIV-1NL4-3 infection of C8166 cells (syncytia formation, p24 ELISA); parameters: key to Syncytium formation: ++: number of syncytia present in the well were similar to that in control untreated well (35 to 40 syncitia per well); −: total absence of syncitia in the well; ±: presence of 1 to 3 syncitia in the well; conditions: for Syncytium formation / P24: C8166 cells; for HIV inhibition characteristics: Table 3, C8166 cells
Experimental: C8188 cells were infected with HIV to establish a baseline control. Similar C8188 cells were pretreated the invented MBPCs and then subjected to HIV to determine inhibition rates. The results are illustrated in FIGS. 1A, 1B and 2.
Samples of 3×10^5 C8166 cells were placed in 96-well plates in a volume of 100 μl of culture medium containing various concentrations of peptide. After a one hour treatment at 37° C., 100 μl of viral solution of HIV-1NL4-3 were added. The cells were exposed to the virus of one hour at 37° C. at a multiplicity of infection of 1,000 TCID50 per ml. After through washing, cells were replaced in 1 ml of R10 with the treatment in 24-well plates and cultured in a 37° C. incubator. C8166 culture medium was replaced at day-4 post-infection. During this assay, treatment with peptide was permanent (before, during and after infection). Assays on C8166 cells have been performed at least twice and in duplicate. Toxicity was evaluated by daily cell count and trypan-blue exclusion assay. Infection of C8166 T-Cells with HIV-1NL4-3 was assessed by virus-induced cytopathic effect (syncytia formation) and by quantification of p24 viral protein in the culture supernatants. Measurements of HIV-1 p24^gag concentrations in the culture supernatants were achieved by ELISA, with a detection cut-off of 5 pg/ml (p24 HIV kit, NEN Dupont, Belgium; Quanti-Kine software, RILAB, Genova, Italy).

HIV-1NL4-3 [2] = test: HIV-1NL4-3 infection of human PBLs/PBMCs (p24 ELISA); conditions: 0.1 μM, FIG. 2
Experimental: Human peripheral blood lymphocytes (PBLs) obtained from healthy HIV-seronegative donor (Etablissement Francais du Sang, Marseille, France) were isolated by ficoll-Hypaque gradient centrifugation. Cells were cultured in R10 medium supplemented with 20 units/ml of interleukin-2 (IL-2, Proleukin, Chiron, The Netherlands). R10 medium consists of RPMI 1640 supplemented with 2 mM ultraglutamine (BioWhittaker, Vervires, Belgium), penicillin (100 units/ml), streptomycin (100 μg/ml), and 10% heat-inactivated fetal calf serum (BioWhittaker). Cells were first stimulated with phytohemaggiutinin (20 μg/ml)-supplemented R10 (PHA P, DIFCO, Detroit, Mich., USA) for three days. Then, the medium was replaced with R10 supplemented with IL2 (20 units/ml), and subsequently cultures and experiments were carried out in this medium in a 37° C. humidified incubator with 5% CO2.
Samples of 10^6 human PBLs were placed in 96-well plates in 100 μl of R10 containing various concentrations of peptide. After one hour treatment of 37° C., 100 μl of viral solution of HIV-1NL4-3 were added. The cells were exposed to the virus for one hour at 37° C. flushed with 5% CO2. The PBL culture medium was replaced every 3-4 days. The cell viability was assessed by cell counts and trypan-blue exclusion assay. The viral production in the culture supernatant was quantified by p24 ELISA test, as described supra. […]

HIV-1 and HIV-2 viruses = test: In vitro inhibition of HIV-induced syncytium formation and infection of human lymphocytes; conditions: HIV-1 and HIV-2 laboratory strains and clinical isolates

Substance | Syncytium formation (HIV-1NL4-3 [1]; peptide 1 μm) | Syncytium formation (HIV-1NL4-3 [1]; peptide 10 μm) | other results
(QGYSPL)2-K-βA [Peptide 5] | ± (presence of 1 to 3 syncitia in the well) | − | 
(RQG)2-K-βA [Peptide 4] | ± (presence of 1 to 3 syncitia in the well) | − | 
(RQGY)2-K-βA [Peptide 3] | ± (presence of 1 to 3 syncitia in the well) | ± (presence of 1 to 3 syncitia in the well) | 
(RQGY)8-(K)4-(K)2-K-βA-OH [(RQGY)8-K4-K2-K-βA] |  |  | inhibition of syncytium formation and p24 production of HIV-infected cells (HIV-1NL4-3 [1]; 5 μM): 100%
(RQGYS)2-K-βA-OH [Peptide 2] | − | − | HIV inhibition characteristics (HIV-1NL4-3 [1]): superior HIV inhibition characteristics; P24 (HIV-1NL4-3 [1]; peptide 1 μm): 0 pg/mL; P24 (HIV-1NL4-3 [1]; peptide 10 μm): 0 pg/mL
(RQGYSP)2-K-βA [Peptide 1] |  | − | 
(RQGYSPL)2-K-βA [Peptide 11] | − | − | viral activity relative to controls (HIV-1NL4-3 [1]; 0.1 micro-molar (μm), FIG. 1, C8166 cells): one tenth that seen in controls; viral activity (HIV-1NL4-3 [1]; 5 μm, FIG. 1, C8166 cells): virtually no activity; viral activity (HIV-1NL4-3 [1]; 10 μm, FIG. 1, C8166 cells): no viral activity; inhibition of syncytium formation and p24 production (HIV-1NL4-3 [1]; HIV-1NL403 infected C8166 cells, FIG. 1): marked inhibition; HIV inhibition characteristics (HIV-1NL4-3 [1]): superior HIV inhibition characteristics; P24 (HIV-1NL4-3 [1]; peptide 1 μm): 0 pg/mL; P24 (HIV-1NL4-3 [1]; peptide 10 μm): 0 pg/mL; inhibition of HIV-1NL403 infected PBMCs (HIV-1NL4-3 [2]): 100%
(SPL)2-K-βA [Peptide 8] | ++ (number of syncytia present in the well were similar to that in control untreated well (35 to 40 syncitia per well)) | ± (presence of 1 to 3 syncitia in the well) | 
(YSPL)2-K-βA [Peptide 7] | ± (presence of 1 to 3 syncitia in the well) | ± (presence of 1 to 3 syncitia in the well) | 
RQGYSPL [monomeric RQGYSPL] |  |  | antiviral properties (HIV-induced syncytium formation, infection of human lymphocytes) (HIV-1 and HIV-2 viruses): inactive
